Reference: patent publication US20050191735A1, “Oxidoreductase” (priority 2003, published 2005)
Where two headings read alike, the source gives them in different places.

Legend:
[1] = system: L. reuteri oxidoreductase; assay: Solvent stability: enzyme activity after contact with organic solvents; type: biochemical, Lactobacillus reuteri; details: for Activity 8 h / Activity 24 h: room temperature; for stability with respect to organic solvents: in words
Protocol: The enzyme stability when making contact with organic solvents was studied by diluting the L. reuteri oxidoreductase 1:400 (in the case of water-miscible organic solvents) with the solvent mixtures indicated and incubating at room temperature. Subsequently, 10 μl of the enzyme solution were used in the standard assay mixture. Here too, the starting value was set to 100% after dilution in the buffer (potassium phosphate buffer 100 mM, pH=7.0, 1 mM MgCl2) and all other values were related thereto.
In the case of the water-immiscible organic solvents, dilution was likewise carried out in potassium phosphate buffer, the same volume of organic solvent was added to the mixture and the mixture incubated at room temperature in a thermal mixer at rpm=170. The activity was measured from the aqueous phase.

[2] = system: recombinant Lactobacillus reuteri oxidoreductase; assay: Substrate spectrum in standard measurement mixture; type: biochemical; details: for NADP-dependent dehydrogenase activity: oxidation of the hydroxy ester
[3] = system: L. reuteri oxidoreductase; assay: Preparative conversion, coenzyme regeneration with Thermoanerobium brockii ADH; type: biochemical, Lactobacillus reuteri; details: 4 ml substrate, 1 000 units oxidoreductase, room temperature, after 24 h
Protocol: For a preparative approach, a mixture of 4 ml of potassium phosphate buffer 100 mM, pH=7.0, 2 ml of isopropanol, 4 ml of ethyl 2-oxo-4-phenylbutyrate, 0.064 mg of NADP, 1 000 units of L. reuteri oxidoreductase and 10 mg of Thermoanerobium brockii ADH (Fluka, approximately 100 U, based on oxidation of 2-propanol) was incubated at room temperature with constant mixing for 24 h. […] 97% of the product was the corresponding S-alcohol.

[4] = system: L. reuteri oxidoreductase; assay: Preparative conversion, coenzyme regeneration with KRED 1004; type: biochemical, Lactobacillus reuteri; details: 4 ml substrate, 1 000 units oxidoreductase, 1 mg KRED 1004, room temperature, after 2 h
Protocol: For a preparative approach, a mixture of 4 ml of potassium phosphate buffer 100 mM, pH=7.0, 2 ml of isopropanol, 4 ml of ethyl 2-oxo-4-phenylbutyrate, 0.064 mg of NADP, 1 000 units of L. reuteri oxidoreductase and 1 mg of KRED 1004 (Biocatalytics Inc, Pasadena) was incubated at room temperature with constant mixing for 2 h. […] 98% of the product was the corresponding S-alcohol.

[5] = substrate: CCCC(=O)C(=O)OCC; assay: Determination of Km and vmax; type: biochemical, Lactobacillus reuteri; details: other: potassium phosphate buffer pH=7.0, enzyme solution 1:300
Protocol: The enzyme solution used was the 1:300 diluted lysate (600 μl) obtained from 0.1 g of recombinant E. coli cells.

[6] = Temperature stability of recombinant L. reuteri oxidoreductase; type: physicochemical; details: after only 30 min
Protocol: The temperature stability for the range from 15° C. to 70° C. was determined in a manner similar to that described under 5.2. […] Here too, the starting value used was the measurement value which is obtained immediately after diluting the enzyme in potassium phosphate buffer 50 mM pH=7.0 and which was set to 100% here, too.

[7] = Temperature optimum of recombinant L. reuteri oxidoreductase; type: biochemical
[8] = pH stability of recombinant L. reuteri oxidoreductase; type: physicochemical
Protocol: The dependence of the activity of the enzyme on storage in buffers of different pH was studied for the pH range from 4 to 11. For this purpose, various buffers (50 mM) in the pH range from 4 to 11 were prepared and the enzyme overexpressed in example 4 was diluted therein 1:200 and incubated for 30, 60 and 300 min. All buffers contained 1 mM MgCl2. 10 μl thereof were then used in the normal activity assay. The starting value here is the measurement value obtained immediately after diluting the enzyme in potassium phosphate buffer 50 mM pH=7.0. Said value corresponded under predefined conditions to a change in extinction of 0.70/min and was set to 100% and all subsequent measurement values were related to this value.

[9] = pH optimum of recombinant L. reuteri oxidoreductase; type: biochemical
Protocol: Preparation of the following measurement buffers, all of which are 50 mM, contain 1 mM MgCl2 and have different pH values.
Enzyme diluted as required (1:20)
A pH optimum of between 6.5 and 7 was determined for the enzyme of the invention.

[10] = water-miscible solvent mixture or buffer, enzyme 1:400, starting value 100%
[11] = reduction with NADPH, activity with ethyl 2-oxo-4-phenylbutyrate set to 100%
[12] = Oxidation, activity with ethyl 2-oxo-4-phenylbutyrate set to 100%
[13] = water-immiscible solvent, same volume as buffer, activity from the aqueous phase

For `C[S+](C)[O-]` [10% DSMO], the “Activity 8 h” value [1, 10] was 80% and the “Activity 24 h” value [1, 10] was 80%.

For `CCCCCCCC(=O)c1ccccc1` [Caprylophenone], the Relative activity % [2, 11] was 0%.

Molecule `O=C(CCl)c1cccc(Cl)c1` [2-Chloro-l-(3-chloro-phenyl)-ethan-1-one] has a Relative activity % [2] of 0%.

In the case of `CC(C)O` [5% Isopropanol, Isopropanol], the “Activity 8 h” value [1, 10] is reported as 77% and the “Activity 24 h” value [1, 10] is reported as 77%.

For `CCO` [5% EtOH, EtOH], the “Activity 8 h” value [1, 10] was 64% and the “Activity 24 h” value [1, 10] was 65%.

With `CC(C)O` [30% Isopropanol, Isopropanol] the “Activity 8 h” value [1, 10] was 0% and the “Activity 24 h” value [1, 10] was 0%.

`CC(=O)Cc1ccccc1` [1-Phenyl-2-propanone] gave a Relative activity % [2, 11] of 3%.

In the case of `CCOC(=O)[C@H](C)O` [Ethyl L-lactate], the Relative activity % [2, 12] is reported as 0% and the NADP-dependent dehydrogenase activity [2] is reported as “no NADP-dependent dehydrogenase activity”.

Molecule `CCCC(=O)C(=O)OCC` [Ethyl 2-oxovalerate] has a Relative activity % [2, 11] of 190%.

In the case of `O=C(O)C[C@H](O)CCl` [S-4-Chloro-3-hydroxy-butyrate], the Relative activity % [2, 12] is reported as 0% and the NADP-dependent dehydrogenase activity [2] is reported as “no NADP-dependent dehydrogenase activity”.

For `CCOC(=O)C(=O)c1ccccc1` [Ethyl phenylglyoxylate], the Relative activity % [2, 11] was 2%.

For `COC(=O)CC(C)=O` [Methyl acetoacetate], the Relative activity % [2, 11] was 0.3%.

Molecule `CCCCCCC(C)=O` [2-Octanone] has a Relative activity % [2, 11] of 1%.

For `CC(C)=O` [Acetone], the Relative activity % [2, 11] was 0%.

In the case of `ClC(Cl)Cl` [Chloroform], the “Activity 8 h” value [1, 13] is reported as 6% and the “Activity 24 h” value [1, 13] is reported as 0%.

In the case of R-4-Chloro-3-hydroxy-butyrate, the Relative activity % [2, 12] is reported as 0% and the NADP-dependent dehydrogenase activity [2] is reported as “no NADP-dependent dehydrogenase activity”.

For `CCO` [10% EtOH, EtOH], the “Activity 8 h” value [1, 10] was 68% and the “Activity 24 h” value [1, 10] was 70%.

In the case of `C1CCCCC1` [Cyclohexane], the “Activity 8 h” value [1, 13] is reported as 113% and the “Activity 24 h” value [1, 13] is reported as 100%.

With `COC(=O)CCCCC(=O)CC(=O)OC` [Dimethyl-3-oxo-1,8-octanedioic acid] the Relative activity % [2, 11] was 42%.

Molecule `CCOC(=O)CCCCC(=O)CCCl` [Ethyl 8-chloro-6-oxooctanoic acid] has a Relative activity % [2, 11] of 190%.

With `CCCCCCC` [Heptane] the “Activity 8 h” value [1, 13] was 113% and the “Activity 24 h” value [1, 13] was 100%.

With `CCOC(=O)C(C)=O` [Ethyl pyruvate] the Relative activity % [2, 11] was 2%.

Work on `CCOC(=O)CC(=O)CC` [Ethyl 3-oxo-valerate] yielded a Relative activity % [2, 11] of 1.3%.

With `O=C(O)C(=O)Cc1ccccc1` [2-Oxo-3-phenyl-propionic acid] the Relative activity % [2, 11] was 0.5%.

With `CC(C)O` [2-Propanol] the Relative activity % [2, 12] was 0%.

With `CCOCC` [Diethyl ether] the “Activity 8 h” value [1, 13] was 32% and the “Activity 24 h” value [1, 13] was 20%.

For `CCOC(C)=O` [Ethyl acetate], the “Activity 8 h” value [1, 13] was 0% and the “Activity 24 h” value [1, 13] was 0%.

In the case of `CCCC(=O)C(=O)O` [2-Oxovaleric acid], the Relative activity % [2, 11] is reported as 0%.

In the case of `CCO` [30% EtOH, EtOH], the “Activity 8 h” value [1, 10] is reported as 77% and the “Activity 24 h” value [1, 10] is reported as 75%.

Work on `CC(=O)c1ccccc1` [Acetophenone] yielded a Relative activity % [2, 11] of 0%.

In the case of `CCC(=O)C(=O)O` [2-oxobutyric acid], the Relative activity % [2, 11] is reported as 0%.

For `CCOC(=O)[C@@H](C)O` [Ethyl D-lactate], the Relative activity % [2, 12] was 0% and the NADP-dependent dehydrogenase activity [2] was “no NADP-dependent dehydrogenase activity”.

With `CC(C)O` [20% Isopropanol, Isopropanol] the “Activity 8 h” value [1, 10] was 100% and the “Activity 24 h” value [1, 10] was 100%.

With `CCCCOC(C)=O` [Butyl acetate] the “Activity 8 h” value [1, 13] was 74% and the “Activity 24 h” value [1, 13] was 12%.

Work on `CCOC(=O)CC(=O)CCl` [Ethyl 4-chloro-acetoacetate] yielded a Relative activity % [2, 11] of 16%.

For `CCO` [20% EtOH, EtOH], the “Activity 8 h” value [1, 10] was 83% and the “Activity 24 h” value [1, 10] was 80%.

With `COC(C)(C)C` [MTBE] the “Activity 8 h” value [1, 13] was 90% and the “Activity 24 h” value [1, 13] was 81%.

With `CCCCCC(=O)CC` [3-Octanone] the Relative activity % [2, 11] was 4%.

With `C[S+](C)[O-]` [20% DSMO] the “Activity 8 h” value [1, 10] was 79% and the “Activity 24 h” value [1, 10] was 80%.

For `CCCCCC` [Hexane], the “Activity 8 h” value [1, 13] was 115% and the “Activity 24 h” value [1, 13] was 100%.

For `CC(C)OC(C)C` [Diisopropyl ether], the “Activity 8 h” value [1, 13] was 94% and the “Activity 24 h” value [1, 13] was 77%.

In the case of `CCOC(=O)C(=O)CCc1ccccc1` [Ethyl 2-oxo-4-phenyl-butyrate], the “conversion to ethyl 2-hydroxy-4-phenylbutyrate” value [3] is reported as “completely converted”, the “conversion to ethyl 2-hydroxy-4-phenylbutyrate” value [4] is reported as “completely converted” and the Relative activity % [2, 11] is reported as 100%.

With `CCOC(=O)[C@H](O)CCc1ccccc1` the Relative activity % [2, 12] was 0% and the NADP-dependent dehydrogenase activity [2] was “no NADP-dependent dehydrogenase activity”.

With `CC(C)O` [10% Isopropanol, Isopropanol] the “Activity 8 h” value [1, 10] was 86% and the “Activity 24 h” value [1, 10] was 85%.

B1: recombinant L. reuteri oxidoreductase (Limosilactobacillus reuteri subsp. reuteri) (protein)
chain: MKNIMIAGAGVLGSQIAYQTALSGFNVSVYNHHIDTAERRIKALKSDYERDLHLTDKEFQQGLNNIKVITDDVATAVKDADLMIEALPESLELKEQFYEEVSELAPEKTIFASNSSTFIPSQLAPYTDRPEKFLNMHFANQIWKFNVVEIMGTSQTSPEVIEEATKFAREIKMVPVILNKEQHGYILNSLLIPLLASGLSLWAKGVADPAMIDKDWMISTGAPMGPFGILDMVGLRTAAQIERNAYAQTKDESHKEIADKMEQMIQEGHEGKESGQGFYNYPNPAFMDPDFLKH
In the case of B1, the Km [5] is reported as 180 ± 70 µM, the “enzyme activity after incubation at 55° C.” value [6] is reported as “no longer detectable” and the “Activity in U/ml of undiluted enzyme” value ([7]; 15 ° C.) is reported as 385 U/ml of undiluted enzyme. For the same molecule, the “Activity in U/ml of undiluted enzyme” value ([7]; 20 ° C.) was 745 U/ml of undiluted enzyme, the “Activity in U/ml of undiluted enzyme” value ([7]; 25 ° C.) was 1090 U/ml of undiluted enzyme and the “Activity in U/ml of undiluted enzyme” value ([7]; 30 ° C.) was 1350 U/ml of undiluted enzyme. For the same molecule, the “Activity in U/ml of undiluted enzyme” value ([7]; 35 ° C.) was 1860 U/ml of undiluted enzyme, the “Activity in U/ml of undiluted enzyme” value ([7]; 40 ° C.) was 2500 U/ml of undiluted enzyme and the “Activity in U/ml of undiluted enzyme” value ([7]; 45 ° C.) was 2900 U/ml of undiluted enzyme. The “Activity in U/ml of undiluted enzyme” value ([7]; 50 ° C.) was 3200 U/ml of undiluted enzyme, the “Activity in U/ml of undiluted enzyme” value ([7]; 55 ° C.) was 3800 U/ml of undiluted enzyme and the “Activity in U/ml of undiluted enzyme” value ([7]; 60 ° C.) was 617 U/ml of undiluted enzyme. For the same molecule, the “Activity in U/ml of undiluted enzyme” value ([7]; 65 ° C.) was 180 U/ml of undiluted enzyme, the “Activity in U/ml of undiluted enzyme” value ([7]; 70 ° C.) was 90 U/ml of undiluted enzyme and the “optimal temperature (maximum activity)” value ([7]; standard measurement mixture, 15° C. to 70° C.) was 55 °C. The remaining activity ([8]; pH 4.0, after 5 h) was 50%, the remaining activity ([8]; pH 9.0, after 5 h) was 40% and the “stability at high pH” value ([8]; pH values above 9.5) was “immediate inactivation”. The “share of maximum activity” value ([9]; in the pH range from 4.5 to 8) was 80%, the “activity outside the pH range” value ([9]; pH values of below 4.0 and above 8.5) was “rapidly decreasing” and the “stability with respect to organic solvents” value [1] was “remarkably stable”. For the same molecule, the “stability with respect to organic solvents” value ([1]; listed as Lactobacillus reuteri oxidoreductase) was “high stability”.
